We go through 35 molecules from patent US12239643B2, “Therapeutic agent for inflammatory diseases, autoimmune diseases, fibrotic diseases, and cancer diseases” (MEIJI SEIKA PHARMA CO., LTD., priority 2018, dated 2025).

This assay concerns PDE4. Briefly: Evaluation of PDE4 inhibitory activity, scintillation proximity assay. It counts as biochemical. Particulars: scintillation proximity assay; class symbols of Evaluation 1; read-out: PDE4 Inhibitory Activity (concentration for the inhibition rate of 50%, IC50), Evaluation 1. Here is the method: The BDE4 inhibitory activity was measured using scintillation proximity assay (SPA) as follows. First, a test compound dissolved in dimethyl sulfoxide was diluted 1:10 in reaction buffer solution which contained 50 mM of Tris-HCl with pH 7.4, 8.3 mM of MgCl2, 1.7 mM of EGTA, and 3 mg/mL of bovine serum albumin (BSA). Then, 10 μL of the diluted solution was added in a 96-well assay plate. Moreover, 50 μL of PDE4 (enzyme preparation) diluted 1:375 in the reaction buffer solution was added, and then 40 μL of [2,8-^3H]-adenosine-3′,5′-cyclic phosphate triethylammonium salt diluted 1:1000 in the reaction buffer solution was added. The mixture was allowed to stand at room temperature for 120 minutes. Thereafter, […] of RNA binding YSi-SPA beads suspension containing ZnSO4 was added and the mixture was allowed to stand at room temperature for 15 minutes, followed by adsorption of the enzyme reaction product to the beads. After that, the radioactivity was measured using a liquid scintillation counter for a 96-well plate. The mixture without the enzyme preparation added but only the reaction buffer solution added is a blank, and the mixture with the enzyme preparation added and only dimethyl sulfoxide added instead of the test compound is a control.
In addition, the PDE4 inhibitory activity (concentration that inhibits PDE4 activity by 50%=concentration for the inhibition rate of 50% (IC50)) of the test compound was calculated from the inhibition curves based on the inhibition rates for various concentrations of the test compound.
In general terms: In a scintillation proximity assay essentially only radioactivity close to the scintillant gives light.

Consider `C[S+]([O-])c1cc(-c2nccs2)c2oc(N3CC4CCC(C3)N4)nc2c1` (centres unmarked) [Example 42, 2-(3,8-Diazabicyclo[3.2.1]octan-3-yl)-5-(methylsulfinyl)-7-(thiazol-2-yl)benzo[d]oxazole], for which the IC50 is less than 100 nM.
In the case of `C[S+]([O-])c1cc(-c2nccs2)c2oc(N3CC4CC(C3)N4)nc2c1` (centres unmarked) [Example 43, 2-(3,6-Diazabicyclo[3.1.1]heptan-3-yl)-5-(methylsulfinyl)-7-(thiazol-2-yl)benzo[d]oxazole], the IC50 was less than 100 nM.
On to `C[S+]([O-])c1cc(-c2nccs2)c2oc(N3CC4CCCC(C3)N4)nc2c1` (centres unmarked) [Example 44, 2-(3,9-Diazabicyclo[3.3.1]nonan-3-yl)-5-(methylsulfinyl)-7-(thiazol-2-yl)benzo[d]oxazole], for which the IC50 is less than 100 nM.
The result for `CS(=O)(=O)c1cc(-c2nccs2)c2oc(N3CC4CCC(C3)N4)nc2c1` [Example 45, 2-(3,8-Diazabicyclo[3.2.1]octan-3-yl)-5-(methylsulfonyl)-7-(thiazol-2-yl)benzo[d]oxazole] reads less than 100 nM; that for `CS(=O)(=O)c1cc(-c2nccs2)c2oc(N3CC4CC(C3)N4)nc2c1` [Example 46, 2-(3,6-Diazabicyclo[3.1.1]heptan-3-yl)-5-(methylsulfonyl)-7-(thiazol-2-yl)benzo[d]oxazole], less than 100 nM; that for `CS(=O)(=O)c1cc(-c2nccs2)c2oc(N3CC4CCCC(C3)N4)nc2c1` [Example 47, 2-(3,9-Diazabicyclo[3.3.1]nonan-3-yl)-5-(methylsulfonyl)-7-(thiazol-2-yl)benzo[d]oxazole], less than 100 nM.
The result for `CC(=O)Nc1cc(-c2nccs2)c2oc(N3CC4CCCC(C3)N4)nc2c1` [Example 48, N-(2-(3,9-diazabicyclo[3.3.1]nonan-3-yl)-7-(thiazol-2-yl)benzo[d]oxazol-5-yl)acetamide] reads less than 100 nM; that for `CC(=O)Nc1cc(-c2nccs2)c2oc(N3CC4CC(C3)N4)nc2c1` [Example 49, N-(2-(3,6-diazabicyclo[3.1.1]heptan-3-yl)-7-(thiazol-2-yl)benzo[d]oxazol-5-yl)acetamide], 100 to 1000 nM; that for `CC(=O)Nc1cc(-c2nccs2)c2oc(N3CC4CCC(C3)N4)nc2c1` [Example 50, N-(2-(3,8-diazabicyclo[3.2.1]octan-3-yl)-7-(thiazol-2-yl)benzo[d]oxazol-5-yl)acetamide], less than 100 nM.
For `FC(F)(F)c1cc(-c2nccs2)c2oc(N3CC4CCC(C3)N4)nc2c1` [Example 51, 2-(3,8-Diazabicyclo[3.2.1]octan-3-yl)-7-(thiazol-2-yl)-5-(trifluoromethyl)benzo[d]oxazole], the IC50 was less than 100 nM.
For the molecule `FC(F)(F)c1cc(-c2nccs2)c2oc(N3CC4CC(C3)N4)nc2c1` [Example 52, 2-(3,6-Diazabicyclo[3.1.1]heptan-3-yl)-7-(thiazol-2-yl)-5-(trifluoromethyl)benzo[d]oxazole], the IC50 was less than 100 nM.
Then `FC(F)(F)c1cc(-c2nccs2)c2oc(N3CC4CCCC(C3)N4)nc2c1` [Example 53, 2-(3,9-Diazabicyclo[3.3.1]nonan-3-yl)-7-(thiazol-2-yl)-5-(trifluoromethyl)benzo[d]oxazole], with less than 100 nM; and `FC(F)(F)Oc1cc(-c2nccs2)c2oc(N3CC4CCC(C3)N4)nc2c1` [Example 54, 2-(3,8-Diazabicyclo[3.2.1]octan-3-yl)-7-(thiazol-2-yl)-5-(trifluoromethoxy)benzo[d]oxazole], with less than 100 nM.
The result for `FC(F)(F)Oc1cc(-c2nccs2)c2oc(N3CC4CCCC(C3)N4)nc2c1` [Example 55, 2-(3,9-Diazabicyclo[3.3.1]nonan-3-yl)-7-(thiazol-2-yl)-5-(trifluoromethoxy)benzo[d]oxazole] reads less than 100 nM.
For `FC(F)(F)Oc1cc(-c2nccs2)c2oc(N3CC4CC(C3)N4)nc2c1` [Example 56, 2-(3,6-Diazabicyclo[3.1.1]heptan-3-yl)-7-(thiazol-2-yl)-5-(trifluoromethoxy)benzo[d]oxazole], the IC50 was less than 100 nM.
With `NS(=O)(=O)c1cc(-c2nccs2)c2oc(N3CC4CCC(C3)N4)nc2c1` [Example 57, 2-(3,8-Diazabicyclo[3.2.1]octan-3-yl)-7-(thiazol-2-yl)benzo[d]oxazole-5-sulfonamide], the IC50 was less than 100 nM.
Then `NS(=O)(=O)c1cc(-c2nccs2)c2oc(N3CC4CC(C3)N4)nc2c1` [Example 58, 2-(3,6-Diazabicyclo[3.1.1]heptan-3-yl)-7-(thiazol-2-yl)benzo[d]oxazole-5-sulfonamide], with less than 100 nM; and `NS(=O)(=O)c1cc(-c2nccs2)c2oc(N3CC4CCCC(C3)N4)nc2c1` [Example 59, 2-(3,9-Diazabicyclo[3.3.1]nonan-3-yl)-7-(thiazol-2-yl)benzo[d]oxazole-5-sulfonamide], with less than 100 nM.
For the molecule `COc1cc(-c2nccs2)c2oc(N3CC4CCC(C3)N4)nc2c1` [Example 60, 2-(3,8-Diazabicyclo[3.2.1]octan-3-yl)-5-methoxy-7-(thiazol-2-yl)benzo[d]oxazole], the IC50 is less than 100 nM.
`COc1cc(-c2nccs2)c2oc(N3CC4CC(C3)N4)nc2c1` [Example 61, 2-(3,6-Diazabicyclo[3.1.1]heptan-3-yl)-5-methoxy-7-(thiazol-2-yl)benzo[d]oxazole]: the IC50 was less than 100 nM.
The result for `COc1cc(-c2nccs2)c2oc(N3CC4CCCC(C3)N4)nc2c1` [Example 62, 2-(3,9-Diazabicyclo[3.3.1]nonan-3-yl)-5-methoxy-7-(thiazol-2-yl)benzo[d]oxazole] reads less than 100 nM.
The result for `Oc1cc(-c2nccs2)c2oc(N3CC4CCC(C3)N4)nc2c1` [Example 63, 2-(3,8-Diazabicyclo[3.2.1]octan-3-yl)-7-(thiazol-2-yl)benzo[d]oxazol-5-ol] reads less than 100 nM.
Consider `Oc1cc(-c2nccs2)c2oc(N3CC4CC(C3)N4)nc2c1` [Example 64, 2-(3,6-Diazabicyclo[3.1.1]heptan-3-yl)-7-(thiazol-2-yl)benzo[d]oxazol-5-ol], for which the IC50 was less than 100 nM.
The result for `Oc1cc(-c2nccs2)c2oc(N3CC4CCCC(C3)N4)nc2c1` [Example 65, 2-(3,9-Diazabicyclo[3.3.1]nonan-3-yl)-7-(thiazol-2-yl)benzo[d]oxazol-5-ol] reads less than 100 nM; that for `FC(F)(F)COc1cc(-c2nccs2)c2oc(N3CC4CCC(C3)N4)nc2c1` [Example 66, 2-(3,8-Diazabicyclo[3.2.1]octan-3-yl)-7-(thiazol-2-yl)-5-(2,2,2-trifluoroethoxy)benzo[d]oxazole], less than 100 nM; that for `FC(F)(F)COc1cc(-c2nccs2)c2oc(N3CC4CC(C3)N4)nc2c1` [Example 67, 2-(3,6-Diazabicyclo[3.1.1]heptan-3-yl)-7-(thiazol-2-yl)-5-(2,2,2-trifluoroethoxy)benzo[d]oxazole], less than 100 nM.
Take `CC(C)Oc1cc(-c2nccs2)c2oc(N3CC4CCC(C3)N4)nc2c1` [Example 68, 2-(3,8-Diazabicyclo[3.2.1]octan-3-yl)-5-isopropoxy-7-(thiazol-2-yl)benzo[d]oxazole]: the IC50 was less than 100 nM.
Then `COCCOc1cc(-c2nccs2)c2oc(N3CC4CCC(C3)N4)nc2c1` [Example 69, 2-(3,8-Diazabicyclo[3.2.1]octan-3-yl)-5-(2-methoxyethoxy)-7-(thiazol-2-yl)benzo[d]oxazole], with less than 100 nM; and `c1csc(-c2cc(OCC3COC3)cc3nc(N4CC5CCC(C4)N5)oc23)n1` [Example 70, 2-(3,8-Diazabicyclo[3.2.1]octan-3-yl)-5-(oxetan-3-ylmethoxy)-7-(thiazol-2-yl)benzo[d]oxazole], with less than 100 nM; and `OCC(CO)COc1cc(-c2nccs2)c2oc(N3CC4CCC(C3)N4)nc2c1` [Example 71, 2-(((2-(3,8-Diazabicyclo[3.2.1]octan-3-yl)-7-(thiazol-2-yl)benzo[d]oxazol-5-yl)oxy)methyl)propane-1,3-diol], with less than 100 nM.
For `C=CCOc1cc(-c2nccs2)c2oc(N3CC4CCC(C3)N4)nc2c1` [Example 72, 5-(Allyloxy)-2-(3,8-diazabicyclo[3.2.1]octan-3-yl)-7-(thiazol-2-yl)benzo[d]oxazole], the IC50 was less than 100 nM.
The result for `N#CCOc1cc(-c2nccs2)c2oc(N3CC4CCC(C3)N4)nc2c1` [Example 73, 2-((2-(3,8-Diazabicyclo[3.2.1]octan-3-yl)-7-(thiazol-2-yl)benzo[d]oxazol-5-yl)oxy)acetonitrile] reads less than 100 nM; that for `O=C(O)COc1cc(-c2nccs2)c2oc(N3CC4CCC(C3)N4)nc2c1` [Example 74, 2-((2-(3,8-Diazabicyclo[3.2.1]octan-3-yl)-7-(thiazol-2-yl)benzo[d]oxazol-5-yl)oxy)acetic acid], less than 100 nM; that for `COc1ccc(-c2nccs2)c2oc(N3CC4CC(C3)N4)nc12` [Example 76, 2-(3,6-Diazabicyclo[3.1.1]heptan-3-yl)-4-methoxy-7-(thiazol-2-yl)benzo[d]oxazole], less than 100 nM.
Then `COc1ccc(-c2nccs2)c2oc(N3CC4CCCC(C3)N4)nc12` [Example 77, 2-(3,9-Diazabicyclo[3.3.1]nonan-3-yl)-4-methoxy-7-(thiazol-2-yl)benzo[d]oxazole], with less than 100 nM.
